Laboratory results reported in patent publication US12162863B2, “Modulators of stimulator of interferon genes (STING)” (RYVU THERAPEUTICS S.A., priority 2018, dated 2024).

How the values were obtained:
human STING = human STING (Homo sapiens, UniProt Q86WV6); test: Fluorescence Thermal Shift assay; format: binding; details: 50 μM compound; STING 0.1 mg/ml; 20 minutes preincubation; read-out: [hSTING] FTS, ΔTm [° C.] for 50 μM
Experimental: Fluorescence Thermal Shift Assay Compounds of the present invention were tested for binding to human STING in Fluorescence Thermal Shift assay. STING was preincubated with the compounds for 20 minutes in 50 mM Hepes, 150 mM NaCl, pH 7.5 in 16 μl volume, following by adding 4 μl of SyproOrange dye dilution (ThermoFisher, cat no. S-6651). Final STING concentration was 0.1 mg/ml. Thermal unfolding was performed in Real-Time PCR QuantStudio 6 Flex System (Applied Biosystems), from 25 to 99° C., with continuous ramp mode and ramp rate 0.033° C./s. The data were analyzed using Protein Thermal Shift Software (ThermoFisher). […] For example, ΔTm [° C.] of FTS assay for following examples are: […]

[1] = tested on: interferon regulatory factor (IRF) pathway in THP-1 dual cells; test: THP-1 Dual Reporter Assay, IRF pathway (luciferase reporter); format: cell-based; details: Homo sapiens, THP1-Dual, 18 h of stimulation, luminescence
Experimental: (§1) THP-1 Dual Reporter Assay
(§2) Compounds of the present invention were tested for their activity using THP-1 dual cells (Invivogen, cat no. thpd-nfis) allowing for simultaneous study of NF-κB pathway and the interferon regulatory factor (IRF) pathway. THP-1 dual cells contain luciferase reporter gene under the control of an ISG54 (interferon-stimulated gene) minimal promoter in conjunction with five interferon-stimulated response elements and a secreted embryonic alkaline phosphatase reporter gene under the control an IFN (interferon)-β minimal promoter fused to five copies of the NF-κB consensus transcriptional response element with three copies of the c-Rel binding site. Following 18 h of stimulation with STING agonist, medium was collected and transferred onto fresh cell culture plate. To verify activity of the IRF pathway, luminescence activity was measured with standard laboratory plate reader immediately after addition 10 μl of the medium to 50 μl of luminescence reagent (Invivogen, cat. No. rep-qlc2). To verify activity of NF-κB pathway, 20 μl of the medium was mixed with 80 μl of a detection medium (Invivogen, cat. No. rep-qb2) and incubated for 2 hours at 37° C. in a humidified atmosphere containing 5% CO2. Next, absorbance at 630 nm was recorded using standard laboratory plate reader.

[2] = tested on: NF-κB pathway in THP-1 dual cells; test: THP-1 Dual Reporter Assay, NF-κB pathway (SEAP reporter); format: cell-based; details: Homo sapiens, THP1-Dual, 18 h of stimulation, absorbance at 630 nm, read-out: THP1 Dual EC50 (μM) NFkB
Experimental: as §1, §2

Sequence of human STING (Q86WV6 whole entry H232R): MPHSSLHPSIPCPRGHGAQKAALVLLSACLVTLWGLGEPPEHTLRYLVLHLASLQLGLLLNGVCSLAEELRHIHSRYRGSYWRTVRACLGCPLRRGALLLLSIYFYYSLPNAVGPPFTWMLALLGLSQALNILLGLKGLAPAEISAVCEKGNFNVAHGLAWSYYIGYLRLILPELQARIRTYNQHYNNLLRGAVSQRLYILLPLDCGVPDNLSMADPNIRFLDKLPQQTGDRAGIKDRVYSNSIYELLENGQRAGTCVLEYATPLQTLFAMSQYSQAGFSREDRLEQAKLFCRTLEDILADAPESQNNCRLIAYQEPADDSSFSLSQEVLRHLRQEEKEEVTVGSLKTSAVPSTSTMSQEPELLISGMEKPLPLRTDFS

Structure (SMILES)	ΔTm at 50 µM (human STING) [°C]	EC50 [1] [µM]	EC50 [2] [µM]
Cc1cc(CN(CCCc2cccnc2)Cc2cn(C)c3ccccc3c2=O)ccn1 [Example 101, 1-methyl-3-({[(2-methylpyridin-4-yl)methyl][3-(pyridin-3-yl)propyl]amino}methyl)-1,4-dihydroquinolin-4-one]	> 2.5	≤ 10	10 to 20
COc1cc(CN(Cc2coc3c(ccc4ccccc43)c2=O)C(C)CCc2cccnc2)ccn1 (stereo not drawn) [Example 83, 3-({[(2-methoxypyridin-4-yl)methyl][4-(pyridin-3-yl)butan-2-yl]amino}methyl)-4H-benzo[h]chromen-4-one]	< 2.5	≤ 10	≤ 10
O=c1c(CN(CCCc2ccccn2)Cc2ccncc2)coc2ccccc12 [Example 6, 3-({[3-(pyridin-2-yl)propyl][(pyridin-4-yl)methyl]amino}methyl)-4H-chromen-4-one]	< 2.5	≥ 20	≥ 20
COc1cc(CN(CCCc2cccnc2)Cc2nn(C)c3ccccc3c2=O)ccn1 [Example 94, 3-({[(2-methoxypyridin-4-yl)methyl][3-(pyridin-3-yl)propyl]amino}methyl)-1-methyl-1,4-dihydrocinnolin-4-one]	> 2.5	≤ 10	≥ 20
Cn1cc(CN(CCCc2cccnc2)Cc2ccnc(Cl)c2)c(=O)c2ccccc21 [Example 90, 3-({[(2-chloropyridin-4-yl)methyl][3-(pyridin-3-yl)propyl]amino}methyl)-1-methyl-1,4-dihydroquinolin-4-one]	> 2.5	≤ 10	10 to 20
Cc1oc2cc(N3CCN(C)CC3)c(F)cc2c(=O)c1CN(CCCn1cnc2cncnc21)Cc1ccncc1 [Example 79, 6-fluoro-2-methyl-7-(4-methylpiperazin-1-yl)-3-({[3-(9H-purin-9-yl)propyl][(pyridin-4-yl)methyl]amino}methyl)-4H-chromen-4-one]	> 2.5	≤ 10	≤ 10
O=c1c(CN(CCCn2ccnc2)Cc2ccncc2)coc2c(F)cc(F)cc12 [Example 45, 6,8-difluoro-3-({[3-(1H-imidazol-1-yl)propyl][(pyridin-4-yl)methyl]amino}methyl)-4H chromen-4-one]	< 2.5	10 to 20	≥ 20
O=c1c(CN(CCCn2ccccc2=O)Cc2ccncc2)coc2c1ccc1ccccc12 [Example 59, 1-{3-[({4-oxo-4H-benzo[h]chromen-3-yl}methyl)[(pyridin-4-yl)methyl]amino]propyl}-1,2-dihydropyridin-2-one]	< 2.5	≤ 10	≤ 10
O=c1c(CN(CCCn2ccnn2)Cc2ccncc2)coc2ccccc12 [Example 4, 3-{[(pyridin-4-ylmethyl)[3-(1H-1,2,3-triazol-1-yl)propyl]amino]methyl}-4H-chromen-4-one]	< 2.5	≥ 20	≥ 20
COc1ccc(CCCN(Cc2ccncc2)Cc2c(C)oc3c(C)c(C)ccc3c2=O)cn1 [Example 66, 3-({[3-(6-methoxypyridin-3-yl)propyl](pyridin-4-ylmethyl)amino}methyl)-2,7,8-trimethyl-4H-chromen-4-one]	< 2.5	≤ 10	≤ 10
O=c1c(CN(CCCn2ccnc2)Cc2ccncc2)coc2c1cc(F)c1ccccc12 [Example 47, 6-fluoro-3-({[3-(1H-imidazol-1-yl)propyl][(pyridin-4-yl)methyl]amino}methyl)-4H benzo[h]chromen-4-one]	> 2.5	≤ 10	≤ 10
O=c1c(CN(CCCn2ccnc2)Cc2ccncc2)coc2cc(O)ccc12 [Example 16, 7-hydroxy-3-({[3-(1H-imidazol-1-yl)propyl](pyridin-4-ylmethyl)amino}methyl)-4H-chromen-4-one]	> 2.5	10 to 20	≥ 20

Results, then the compound that gave them:

ΔTm at 50 µM (human STING) [°C]	EC50 [1] [µM]	EC50 [2] [µM]	Structure (SMILES)
< 2.5	≥ 20	≥ 20	O=C1CCCN1CCCN(Cc1ccncc1)Cc1coc2ccccc2c1=O [Example 8, 1-(3-{[(4-oxo-4H-chromen-3-yl)methyl](pyridin-4-ylmethyl)amino}propyl)pyrrolidin-2-one]
> 2.5	≤ 10	10 to 20	COc1ccccc1-c1ccc2c(=O)c(CN(CCCn3ccnc3)Cc3ccncc3)coc2c1 [Example 39, 3-({[3-(1H-imidazol-1-yl)propyl][(pyridin-4-yl)methyl]amino}methyl)-7-(2-methoxyphenyl)-4H-chromen-4-one]
> 2.5	≤ 10	≤ 10	O=c1c(CN(CCCn2cnc3ncccc32)Cc2ccncc2)coc2c1ccc1ccccc12 [Example 68, 3-{[(3-{1H-imidazo[4,5-b]pyridin-1-yl}propyl)(pyridin-4-ylmethyl)amino]methyl}-4H-benzo[h]chromen-4-one]
> 2.5	≤ 10	10 to 20	O=c1c(CN(CCCc2cccnc2)Cc2ccncc2)coc2ccccc12 [Example 19, 3-({[3-(pyridin-3-yl)propyl][(pyridin-4-yl)methyl]amino}methyl)-4H-chromen-4-one]
< 2.5	≥ 20	≥ 20	O=c1c(CN(CCCc2cncc3ccccc23)Cc2ccncc2)coc2c1ccc1ccccc12 [Example 61, 3-({[3-(isoquinolin-4-yl)propyl][(pyridin-4-yl)methyl]amino}methyl)-4H-benzo[h]chromen-4-one]
> 2.5	≤ 10	≤ 10	COc1ccc2ccc3c(=O)c(CN(CCCc4cccnc4)Cc4ccncc4)coc3c2c1 [Example 52, 9-methoxy-3-({[3-(pyridin-3-yl)propyl][(pyridin-4-yl)methyl]amino}methyl)-4H-benzo[h]chromen-4-one]
< 2.5	≤ 10	≤ 10	CC(CCn1cnc2ccccc21)N(Cc1ccncc1)Cc1coc2c(ccc3ccccc32)c1=O (stereo not drawn) [Example 72, 3-({[4-(1H-1,3-benzodiazol-1-yl)butan-2-yl](pyridin-4-ylmethyl)amino}methyl)-4H-benzo[h]chromen-4-one]
> 2.5	≤ 10	≤ 10	O=c1c(CN(CCCc2cccnc2)Cc2ccncc2)coc2c1ccc1ccccc12 [Example 28, 3-({[3-(pyridin-3-yl)propyl](pyridin-4-ylmethyl)amino}methyl)-4H-benzo[h]chromen-4-one]
> 2.5	≥ 20	≥ 20	COc1cc(CN(CCCn2cnc3ccccc32)Cc2c[nH]c3ccccc3c2=O)ccn1 [Example 88, 3-({[3-(1H-1,3-benzodiazol-1-yl)propyl][(2-methoxypyridin-4-yl)methyl]amino}methyl)-1,4-dihydroquinolin-4-one]
> 2.5	≤ 10	10 to 20	O=c1c(CN(CCCc2ccncc2)Cc2ccncc2)coc2ccccc12 [Example 21, 3-({[(pyridin-4-yl)methyl][3-(pyridin-4-yl)propyl]amino}methyl)-4H-chromen-4-one]
< 2.5	≥ 20	≥ 20	COc1cc(CN(CCCc2ccnnc2)Cc2cn(C)c3ccccc3c2=O)ccn1 [Example 102, 3-({[(2-methoxypyridin-4-yl)methyl][3-(pyridazin-4-yl)propyl]amino}methyl)-1-methyl-1,4-dihydroquinolin-4-one]
> 2.5	≤ 10	≤ 10	COc1cc2ncn(CCCN(Cc3ccncc3)Cc3coc4c(ccc5ccccc54)c3=O)c2cc1OC [Example 76, 3-({[3-(5,6-dimethoxy-1H-1,3-benzodiazol-1-yl)propyl](pyridin-4-ylmethyl)amino}methyl)-4H-benzo[h]chromen-4-one]
> 2.5	≤ 10	≤ 10	Cc1oc2cc(Br)c(F)cc2c(=O)c1CN(CCCc1cccnc1)Cc1ccncc1 [Example 63, 7-bromo-6-fluoro-2-methyl-3-({[3-(pyridin-3-yl)propyl][(pyridin-4-yl)methyl]amino}methyl)-4H-chromen-4-one]
< 2.5	≥ 20	≥ 20	Cc1oc2cc(C(=O)O)c(F)cc2c(=O)c1CN(CCCc1cccnc1)Cc1ccncc1 [Example 80, 6-fluoro-2-methyl-4-oxo-3-({[3-(pyridin-3-yl)propyl][(pyridin-4-yl)methyl]amino}methyl)-4H-chromene-7-carboxylic acid]
